Data set [1] concerns MCF-7 cells. In words: MTT assay in MCF-7 cells. It counts as cell-based. Particulars: for viability at 10 µM: read-out: viable cells; for IC50: MCF-7, MTT. From the text: (§1) An in vitro cancer cell two-dimensional culture model was used for this study using 3-(4,5-dimethylthiazole-2-yl)-2,5-diphenyltetrazolium bromide (MTT) assay.[19]
(§2) The cell viability of PPPs was investigated using 3-(4,5-dimethylthiazole-2-yl)-2,5-diphenyltetrazolium bromide (MTT) reduction assay in the presence of 10% fetal bovine serum in antibiotic free media. The yellow tetrazolium salt (MTT) is modified by mitochondrial dehydrogenases to its purple formazan derivative (MTT-formazan) with maximum absorbance at 560–570 nm. […] Experiment was performed in 96-well plates (Cellstar, Germany) growing 10 000 cells (MCF-7, MDA-MB231, and MCF-10A) per well for 24 h before treatments. Experiments were performed for various concentrations of PPPs ranging from 10^5 to 10^0 nM and compared with Taxol as positive control ranging from 10^2 to 10^–3 nM, as described in particular experiment. Cells were incubated for 48 h before performing the MTT assay. At the end of the incubation period, cells were treated with MTT (20 μL, 5 mg/mL) per well and further incubated for 4 h. At the end of the incubation, the entire medium was removed from the wells and 200 μL of dimethyl sulfoxide (DMSO) was added to dissolve blue-colored formazan crystals produced by mitochondrial respirations. The percentage cell viability was obtained by calculating absorbance values and calculated using the formula %viability = {[A630(treated cells) – (background)]/[A630(untreated cells) – background]} × 100.

The subject of data set [2] is tubulin. The data set is described as follows: In vitro microtubule polymerization assay (fluorescence). It counts as biochemical. Particulars: 37 °C, 1.5 h, λex 350 nm, 430 nm. Also noted: dose or concentration left out as unconfirmed. As for the experimental part:
To gather further insight into the molecular mechanism of action of PPPs, an in vitro cytoskeleton assay was carried out to investigate the effect of these agents on microtubule polymerization (Figure 1). In this protocol, 85 μL of 10 mg/mL tubulin stock was incubated with tubulin glycerol buffer for 1.5 h at 37 °C in the presence of various PPPs at a fixed concentration (20 mM). Following this, the degree of tubulin polymerization was evaluated by observing their fluorescence profile with time.
The content of polymerized microtubules was monitored by measuring fluorescence intensity at 430 nm (λex = 350 nm) every 7 s for 1.5 h. Paclitaxel (PTXL), a well-known microtubule stabilizer, was added to the assay as a positive control, whereas the tubulin glycerol buffer acted as a negative control. […] This implies that addition of PPP1–7 into the assay led to a stabilization of microtubule polymerization. […] Further inspection to correlate between the obtained trend in tubulin polymerization and modifications attempted at the N-1 and C-3 positions yielded interesting observations. […]
Unless otherwise mentioned, the reagents and chemicals were purchased from Sigma-Aldrich (St. Louis, MO) and used without any purification. […] High-resolution mass spectra (HRMS) were recorded on a quad time-of-flight electrospray ionization (ESI)-MS instrument.

The test system of data set [3] is MDA-MB231 cells. In words: MTT assay in MDA-MB231 cells. It counts as cell-based.
Source text: as §1, §2

For data set [4], the system named is human melanoma C32 cells. The data set is described as follows: MTT assay in C32 cells. It counts as cell-based. Particulars: 48 h.
Source text: as §1, §2

Data set [5] has as its system MCF-10A cells. In words: MTT assay in noncancerous MCF-10A cells. It counts as cell-based, human. Particulars: 10 μM, 48 h. The protocol:
Effectivity of anticancer drugs not only depends on cancer inhibition property but minimum effect to noncancerous normal cells. A representative study was performed on MCF-10A cells of noncancerous nature and human breast origin. […] It indicates the selectivity of PPPs toward cancer cells, presumably due to higher variation in tubulin polymerization processes.
as §2

Data set [6] deals with tubulin. The data set is described as follows: SDS-PAGE of PPP-tubulin mixtures, band intensity of polymerized tubulin (FIJI). Particulars: Coomassie stain, among all PPP–tubulin mixtures. It counts as biochemical. The protocol: With this promising result, we further focused on confirming the polymerization of microtubules. PPP–tubulin mixtures were collected from the abovementioned assay, and a sodium dodecyl sulfate polyacrylamide gel electrophoresis (SDS-PAGE) was performed to separate both tubulin as well as polymerized tubulin from the mixture. […] Two distinct bands were obtained, one in the region of 40–55 kDa, which is consistent with the molecular weight of α-, β-tubulin,[16] and other in the region of 130 kDa. This is presumably a result of tubulin polymerization. A semiquantitative analysis of the polymerized tubulin bands was performed using FIJI[17] to calculate the band intensities, as shown in Figure 2b. Fold change of band intensities was further calculated with respect to PPP5–tubulin mixture (Figure 2c).  Figure 2 (a) Coomassie-stained gel lanes for tubulin–dye mixtures, showing two migrating populations, polymerized tubulin (∼130 kDa MW), and α-, β-tubulin (∼50 kDa MW). A representative molecular weight standard lane is also shown across the sample lanes for comparison.

Data set [7] relates to MCF-7 cells. In words: Cell growth density study (bright field images). It counts as cell-based. Particulars: MCF-7, 1 μM.
The mark [8] stands for this setting: Homo sapiens, MCF7, MCF-7, 10 μM, 48 h.

Eight molecules from PMC6130796, “Copper-Catalyzed Syntheses of Pyrene-Pyrazole Pharmacophores and Structure Activity Studies for Tubulin Polymerization” (ACS Omega, 2018) can be followed below.

Entries after “also recorded” stand apart in the source; their conditions may differ.

`CC(=O)O[C@H]1C(=O)[C@@]2(C)[C@H]([C@H](OC(=O)c3ccccc3)[C@]3(O)C[C@H](OC(=O)[C@H](O)[C@@H](NC(=O)c4ccccc4)c4ccccc4)C(C)=C1C3(C)C)[C@]1(OC(C)=O)CO[C@@H]1C[C@@H]2O` [Taxol, Paclitaxel, reference compound] gave a cell growth level in data set [1] (MCF-7, positive control, Figure 4b) of 42 ± 10%. For the same molecule, the “effect on microtubule polymerization (fluorescence intensity with time)” value in data set [2] (listed as PTXL) is given as “increase in relative fluorescence intensity; also recorded: stabilizing the tubulin polymerization reaction”.
With `Cc1cc(-c2ccc3ccc4cccc5ccc2c3c45)n(-c2ccc(-c3ccccc3)cc2)n1` [PPP2, 1-([1,1′-Biphenyl]-4-yl)-3-methyl-5-(pyren-1-yl)-1H-pyrazole], the concentration for half-maximal inhibition (IC50) in data set [3] (Homo sapiens, MDA-MB-231, 48 h) was 15 ± 5 µM; in data set [1] (Homo sapiens, MCF7, 48 h), 34 ± 4 µM; in data set [4] (Homo sapiens) it was above 100 µM. Besides, the viability at 10 µM in data set [1] (setting [8]) was determined as 45 ± 3%.
`Cc1cc(-c2ccc3ccc4cccc5ccc2c3c45)n(-c2ccccc2)n1` [PPP1, 3-Methyl-1-phenyl-5-(pyren-1-yl)-1H-pyrazole]: the “cell death in noncancerous cells” value in data set [5] is recorded as “did not result in any significant cell death”. Further, the IC50 in data set [3] (Homo sapiens, MDA-MB-231, 48 h) was above 100 µM; in data set [1] (Homo sapiens, MCF7, 48 h) it was 60 ± 10 µM; in data set [4] (Homo sapiens), above 100 µM. Also, the viability at 10 µM in data set [1] (setting [8]) turned out to be 50 ± 5%.
With `O=C(O)c1cc(-c2ccc3ccc4cccc5ccc2c3c45)n(-c2ccccc2)n1` [PPP7, 1-Phenyl-5-(pyren-1-yl)-1H-pyrazole-3-carboxylic Acid], the “cell death in noncancerous cells” value in data set [5] is given as “did not result in any significant cell death”. Further, the half-maximal inhibitory concentration (IC50) amounted to 10 ± 2 µM in data set [3] (Homo sapiens, MDA-MB-231, 48 h); 8 ± 2 µM in data set [1] (Homo sapiens, MCF7, 48 h); 14 ± 2 µM in data set [4] (Homo sapiens). Further, the viability at 10 µM in data set [1] (setting [8]) came out at 50 ± 5%.
Turning to “1-(Benzo[b]thiophen-2-yl)-3-methyl-5-(pyren-1-yl)-1H-pyrazole [PPP3]”, the half-maximal inhibitory concentration (IC50) in data set [3] (48 h), in data set [1] (48 h) and in data set [4] was above 100 µM throughout. The molecule also showed a viable cells in data set [1] (MCF-7, 10 μM, 48 h) of 52 ± 5%.
As to `c1ccc(-c2ccc(-n3nc(-c4ccccc4)cc3-c3ccc4ccc5cccc6ccc3c4c56)cc2)cc1` [PPP5, 1-([1,1′-Biphenyl]-4-yl)-3-phenyl-5-(pyren-1-yl)-1H-pyrazole], the half-inhibitory concentration (IC50) in data set [3] (Homo sapiens, MDA-MB-231, 48 h) was above 100 µM; in data set [1] (Homo sapiens, MCF7, 48 h) it was above 100 µM; in data set [4] (Homo sapiens), above 100 µM. Further, the viability at 10 µM in data set [1] (setting [8]) is 70 ± 10%. In data set [6], the “band intensity of polymerized tubulin (∼130 kDa)” value is recorded as “least”. For the same molecule, the “effect on microtubule polymerization (fluorescence intensity with time)” value in data set [2] was “inhibits microtubule formation; also recorded: inhibition of microtubule polymerization”.
`c1ccc(-c2cc(-c3ccc4ccc5cccc6ccc3c4c56)n(-c3ccccc3)n2)cc1` [PPP4, 1,3-Diphenyl-5-(pyren-1-yl)-1H-pyrazole]: the “cell death in noncancerous cells” value in data set [5] is “did not result in any significant cell death”. Moreover, the half-inhibitory concentration (IC50) in data set [3] (Homo sapiens, MDA-MB-231, 48 h) was 0.5 ± 0.2 µM; in data set [1] (Homo sapiens, MCF7, 48 h) it was 1 ± 0.5 µM; in data set [4] (Homo sapiens), 5 ± 2 µM. The viability at 10 µM in data set [1] (setting [8]) was determined as 30 ± 3%. Besides, the “loss in cell growth density” value in data set [7] is reported as “maximum loss”.
`Cc1cc(-c2ccc3ccc4cccc5ccc2c3c45)[nH]n1` [PPP6, 3-Methyl-5-(pyren-1-yl)-1H-pyrazole]: the concentration for half-maximal inhibition (IC50) is above 100 µM in data set [3] (Homo sapiens, MDA-MB-231, 48 h); 43 ± 5 µM in data set [1] (Homo sapiens, MCF7, 48 h); above 100 µM in data set [4] (Homo sapiens). Moreover, the viability at 10 µM in data set [1] (setting [8]) was determined as 55 ± 5%.
